This note sets out measurements from PubChem BioAssay AID330 (DTP/NCI, 2004).

This assay has as its system P388 leukemia ip, CD2F1 mice, survival T/C. As to the kind of experiment: NCI In Vivo Anticancer Drug Screen. Data for tumor model P388 Leukemia (intraperitoneal) in CD2F1 (CDF1) mice. The conditions noted are these: endpoint: median survival time, higher = longer survival. In a few lines:
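Mice carrying the transplanted tumor received test compound or vehicle. Survival was recorded in each group, and the value is the treated-group measurement divided by that of the vehicle-treated control group.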

Where [1] appears, read: dose: 7.5 mg/kg/injection, schedule: Q01DX005 (ip), vehicle: Klucel (hydroxypropylcellulose) (HPC).
Where [2] appears, read: dose: 30.0 mg/kg/injection, schedule: Q01DX005 (ip), vehicle: Klucel (hydroxypropylcellulose) (HPC).
[3] abbreviates: dose: 60.0 mg/kg/injection, schedule: Q01DX005 (ip), vehicle: Klucel (hydroxypropylcellulose) (HPC).
Setting [4] is: dose: 120.0 mg/kg/injection, schedule: Q01DX005 (ip), vehicle: Klucel (hydroxypropylcellulose) (HPC).
Where [5] appears, read: dose: 240.0 mg/kg/injection, schedule: Q01DX005 (ip), vehicle: Klucel (hydroxypropylcellulose) (HPC).
Setting [6] is: dose: 60.0 mg/kg/injection, schedule: Q01DX005 (ip), vehicle: saline with Tween-80.
Setting [7] is: dose: 120.0 mg/kg/injection, schedule: Q01DX005 (ip), vehicle: saline with Tween-80.
The mark [8] stands for this setting: dose: 240.0 mg/kg/injection, schedule: Q01DX005 (ip), vehicle: saline with Tween-80.
Setting [9] is: dose: 50.0 mg/kg/injection, schedule: Q01DX009 (ip), vehicle: saline with Tween-80.
The mark [10] stands for this setting: dose: 100.0 mg/kg/injection, schedule: Q01DX009 (ip), vehicle: saline with Tween-80.
[11] abbreviates: dose: 200.0 mg/kg/injection, schedule: Q01DX009 (ip), vehicle: saline with Tween-80.
The mark [12] stands for this setting: dose: 50.0 mg/kg/injection, schedule: Q01DX005 (ip), vehicle: saline.
Setting [13] is: dose: 100.0 mg/kg/injection, schedule: Q01DX005 (ip), vehicle: saline.
Where [14] appears, read: dose: 200.0 mg/kg/injection, schedule: Q01DX005 (ip), vehicle: saline.
The mark [15] stands for this setting: dose: 60.0 mg/kg/injection, schedule: Q01DX005 (ip), vehicle: saline.
Where [16] appears, read: dose: 50.0 mg/kg/injection, schedule: Q01DX009 (ip), vehicle: saline.
The mark [17] stands for this setting: dose: 100.0 mg/kg/injection, schedule: Q01DX009 (ip), vehicle: saline.
Where [18] appears, read: dose: 50.0 mg/kg/injection, schedule: Q01DX005 (ip), vehicle: saline with Tween-80.
Where [19] appears, read: dose: 100.0 mg/kg/injection, schedule: Q01DX005 (ip), vehicle: saline with Tween-80.
[20] abbreviates: dose: 200.0 mg/kg/injection, schedule: Q01DX005 (ip), vehicle: saline with Tween-80.
[21] abbreviates: dose: 100.0 mg/kg/injection, schedule: Q04DX002 (ip), vehicle: Klucel (hydroxypropylcellulose) (HPC).
The mark [22] stands for this setting: dose: 200.0 mg/kg/injection, schedule: Q04DX002 (ip), vehicle: Klucel (hydroxypropylcellulose) (HPC).
The mark [23] stands for this setting: dose: 400.0 mg/kg/injection, schedule: Q04DX002 (ip), vehicle: Klucel (hydroxypropylcellulose) (HPC).

Where “and” joins values, the source holds several entries; their conditions need not be identical. Equal values may be shown once. Inconclusive results and toxic doses are left out.

Consider `NC(=O)C1=CC2C3C=CC2(O)C(=O)OC3O1` (stereo not given), for which the T/C by setting is: under setting [1], 114 % of control and 119 % of control; under setting [2], 158 % of control.
As for `COC(=O)C(Cc1cn(C(O)(NC(=O)OCc2ccccc2)C(F)(F)F)cn1)NC(=O)C(NC(=O)C(CC(C)C)NC(=O)C(CSC(c1ccccc1)(c1ccccc1)c1ccccc1)NC(=O)OCc1ccccc1)C(C)C` (stereo not given), the T/C reads like this: under setting [3], 91 % of control; under setting [4], 110 % of control; under setting [5], 96 % of control.
For `CCC(/C=C/c1ccc(C)cc1)=N\NC(=O)c1ccccc1`, the T/C was 98 % of control under setting [6], 89 % of control under setting [7] and 90 % of control under setting [8].
As for `S=c1n(-c2ccc(Cl)cc2)c2/c(=N\Nc3cc(Cl)ccc3Cl)c(n1-c1ccccn1)=NCCN=2`, the T/C by setting is: (dose: 15.0 mg/kg/injection, schedule: Q01DX005 (ip), vehicle: saline with Tween-80) 98 % of control; (dose: 30.0 mg/kg/injection, schedule: Q01DX005 (ip), vehicle: saline with Tween-80) 112 % of control; under setting [6], 99 % of control and 112 % of control.
Consider `CC1=CC=CC(C)(C(Cl)Cl)C1=O` (stereo not given), for which the T/C under setting [9] is 109 % of control, the T/C under setting [10] is 104 % of control and the T/C under setting [11] is 109 % of control.
In the case of `c1ccc2c(c1)CC1OCN3CN(COC4Cc5ccccc5CC43)C1C2` (stereo not given), the T/C under setting [12] is 114 % of control, the T/C under setting [13] is 111 % of control and the T/C under setting [14] was 112 % of control.
In the case of `CC(=O)Nc1cscc1NC(C)=O`, the T/C was 101 % of control (dose: 25.0 mg/kg/injection, schedule: Q01DX009 (ip), vehicle: saline with Tween-80); 94 % of control under setting [9]; 100 % of control under setting [10]; 101 % of control under setting [11].
As to `CC/C(=N/N(C)C)C(=O)OC(C)(C)C`, the T/C was 95 % of control under setting [15]; 93 % of control (dose: 120.0 mg/kg/injection, schedule: Q01DX005 (ip), vehicle: saline); 90 % of control (dose: 240.0 mg/kg/injection, schedule: Q01DX005 (ip), vehicle: saline).
Consider `O=C(O)c1ccc(N2C(=O)C3C4CCC(O4)C3C2=O)cc1` (stereo not given), for which the T/C (dose: 6.25 mg/kg/injection, schedule: Q01DX005 (ip), vehicle: saline with Tween-80) is 101 % of control and the T/C (dose: 12.5 mg/kg/injection, schedule: Q01DX005 (ip), vehicle: saline with Tween-80) was 101 % of control.
Consider `C/C(=C\C(=O)c1ccccc1)Nc1noc(-c2ccccc2)n1`, for which the T/C reads like this: under setting [6], 97 % of control; under setting [7], 94 % of control; under setting [8], 96 % of control.
For the compound `CCN(CC)CCOCCCNc1ccnc2cc(Cl)ccc12`, the T/C runs as follows: under setting [12], 100 % of control; under setting [13], 103 % of control.
As for `CCC(C)(F)C(N)C(=O)O` (stereo not given), the T/C runs as follows: under setting [12], 100 % of control; under setting [13], 97 % of control; under setting [14], 100 % of control.
Take `ICC1Cc2ccccc2O1` (stereo not given): the T/C under setting [9] is 99 % of control, the T/C under setting [10] was 101 % of control and the T/C under setting [11] is 103 % of control.
On to `O=C(C1CC2C=CC1C2)N1CCCCC1` (stereo not given), for which the T/C reads like this: under setting [16], 90 % of control; under setting [17], 91 % of control; (dose: 200.0 mg/kg/injection, schedule: Q01DX009 (ip), vehicle: saline) 98 % of control.
For the compound `O=C1C(c2ccccc2)=C(c2ccccc2)C2(c3ccccc3)Oc3c(Cl)c(Cl)c(Cl)c(Cl)c3OC12c1ccccc1` (stereo not given), the T/C runs as follows: under setting [9], 89 % of control; under setting [10], 93 % of control.
In the case of `CC1(C)COC(=O)/C1=C\C#N`, the T/C by setting is: (dose: 50.0 mg/kg/injection, schedule: Q04DX003 (ip), vehicle: Klucel (hydroxypropylcellulose) (HPC)) 94 % of control and 98 % of control; (dose: 100.0 mg/kg/injection, schedule: Q04DX003 (ip), vehicle: Klucel (hydroxypropylcellulose) (HPC)) 105 % of control; (dose: 100.0 mg/kg/injection, schedule: Q04DX003 (ip), vehicle: saline) 101 % of control; (dose: 200.0 mg/kg/injection, schedule: Q04DX003 (ip), vehicle: Klucel (hydroxypropylcellulose) (HPC)) 100 % of control and 97 % of control; (dose: 200.0 mg/kg/injection, schedule: Q04DX003 (ip), vehicle: saline) 111 % of control; (dose: 400.0 mg/kg/injection, schedule: Q04DX003 (ip), vehicle: Klucel (hydroxypropylcellulose) (HPC)) 105 % of control. Further, the T/C (dose: 400.0 mg/kg/injection, schedule: Q04DX003 (ip), vehicle: saline) was 120 % of control.
`O=C(CC1=NC2NN(c3ccccc3)C(=O)C2=C1CC(=O)c1cccc2ccccc12)c1cccc2ccccc12` (stereo not given): the T/C was 107 % of control under setting [18], 107 % of control under setting [19] and 107 % of control under setting [20].
In the case of `N#CNC1=NCOCN1`, the T/C is, setting by setting: under setting [6], 100 % of control; under setting [7], 100 % of control.
Consider `Cc1ccc(-c2cn3nc(-c4ccc5c(c4)OCO5)sc3n2)cc1`, for which the T/C by setting is: under setting [6], 92 % of control; under setting [7], 99 % of control and 89 % of control; under setting [8], 87 % of control.
As for `O=S=C(c1ccccc1)N1CCc2ccccc21`, the T/C is, setting by setting: (dose: 25.0 mg/kg/injection, schedule: Q01DX009 (ip), vehicle: saline) 97 % of control; under setting [16], 97 % of control; under setting [17], 89 % of control.
For `CCC1(O)C(=O)OCc2c1cc1n(c2=O)Cc2ccccc2-1` (stereo not given), the T/C reads like this: (dose: 100.0 mg/kg/injection, schedule: Q01DX001 (ip), vehicle: saline with Tween-80) 96 % of control; (dose: 200.0 mg/kg/injection, schedule: Q01DX001 (ip), vehicle: saline with Tween-80) 90 % of control; (dose: 400.0 mg/kg/injection, schedule: Q01DX001 (ip), vehicle: saline with Tween-80) 92 % of control.
For the compound `NC(CSC(c1ccccc1)(c1ccccc1)c1ccccc1)C(=O)OC(c1ccccc1)c1ccccc1` (stereo not given), the T/C runs as follows: (dose: 400.0 mg/kg/injection, schedule: Q04DX003 (ip), vehicle: saline with Tween-80) 150 % of control and 154 % of control; (dose: 600.0 mg/kg/injection, schedule: Q04DX003 (ip), vehicle: saline with Tween-80) 109 % of control.
`CCCCCCCCCCCCCCCC[N+]1(CCCCCCCCCCCC)CCSCC1` (tested in a mixture with another compound): the T/C runs as follows: (dose: 10.0 mg/kg/injection, schedule: Q01DX009 (ip), vehicle: saline with Tween-80) 112 % of control; (dose: 40.0 mg/kg/injection, schedule: Q01DX009 (ip), vehicle: saline with Tween-80) 121 % of control.
Take `CNC(=S)N/N=C(C)/C=C/c1ccc(OC)cc1`: the T/C under setting [21] is 104 % of control, the T/C under setting [22] is 100 % of control and the T/C under setting [23] is 91 % of control.
As for `NC(CCl)=NCCOC12CC3CC(CC(C3)C1)C2`, the T/C was 103 % of control (dose: 15.0 mg/kg/injection, schedule: Q01DX005 (ip), vehicle: saline); 103 % of control (dose: 30.0 mg/kg/injection, schedule: Q01DX005 (ip), vehicle: saline); 106 % of control and 98 % of control under setting [15].
For the compound `CCC1S(=O)(=O)OCCOS1(=O)=O`, the T/C under setting [1] was 106 % of control; the T/C (dose: 15.0 mg/kg/injection, schedule: Q01DX005 (ip), vehicle: Klucel (hydroxypropylcellulose) (HPC)) is 106 % of control and 107 % of control and 116 % of control; the T/C under setting [2] was 109 % of control and 112 % of control and 120 % of control.
For `COc1cccc(C(c2cc3c(cc2O)OCO3)N2CCCC2)c1O` (stereo not given), the T/C under setting [3] is 109 % of control, the T/C under setting [4] was 109 % of control and the T/C under setting [5] was 115 % of control.
Turning to `COC(=O)c1c(-c2ccc3c(c2)OCO3)cn(C)c1C`, the T/C by setting is: under setting [18], 97 % of control; under setting [19], 91 % of control; under setting [20], 87 % of control.
Regarding `CC(=O)Nc1ccc(S(=O)(=O)Oc2noc3ccc(S(N)(=O)=O)cc23)cc1`, the T/C under setting [21] is 102 % of control, the T/C under setting [22] was 107 % of control and the T/C under setting [23] is 109 % of control.
